Results: publication PMC6163054 (Chembiochem : a European journal of chemical biology, 2018)

Target: Fluc (firefly luciferase) (Photinus pyralis, UniProt P08659)
Experiment: bioluminescence kinetics, luminometer, nonlinear regression
Type: biochemical
Settings: ATP, Mg2+, pH 7.6; text says low millimolar range

Fluc (firefly luciferase), sequence (P08659 whole entry): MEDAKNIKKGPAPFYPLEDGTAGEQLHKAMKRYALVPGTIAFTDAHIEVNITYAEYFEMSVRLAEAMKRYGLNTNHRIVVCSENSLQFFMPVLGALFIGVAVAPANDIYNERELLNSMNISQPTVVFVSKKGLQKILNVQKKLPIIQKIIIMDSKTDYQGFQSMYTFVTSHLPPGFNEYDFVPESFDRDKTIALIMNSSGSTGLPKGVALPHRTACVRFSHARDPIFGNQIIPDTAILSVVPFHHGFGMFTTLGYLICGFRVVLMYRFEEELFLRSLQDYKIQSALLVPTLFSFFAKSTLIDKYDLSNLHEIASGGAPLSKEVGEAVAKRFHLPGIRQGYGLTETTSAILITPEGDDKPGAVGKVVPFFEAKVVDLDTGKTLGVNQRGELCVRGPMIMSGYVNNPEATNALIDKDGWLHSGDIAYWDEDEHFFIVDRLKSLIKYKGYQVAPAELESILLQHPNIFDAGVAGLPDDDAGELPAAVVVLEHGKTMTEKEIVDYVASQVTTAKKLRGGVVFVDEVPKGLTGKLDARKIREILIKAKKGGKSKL

SMILES	apparent Km
O=C(O)[C@H]1CSC(c2nc3c[nH]c(=O)cc3s2)=N1 [compound 3, (S)-2-(Thiazolo[4,5-c]pyridin-6(5H)-one-2-yl)-4,5-dihydrothiazole-4-carboxylic acid]	The apparent Km values measured for both luciferins were in the low millimolar range
O=C(O)[C@H]1CSC(c2nc3ccc(=O)[nH]c3s2)=N1 [compound 4, (S)-2-(Thiazolo[5,4-b]pyridin-5(4H)-one-2-yl)-4,5-dihydrothiazole-4-carboxylic acid]	The apparent Km values measured for both luciferins were in the low millimolar range
